According to patent US11944665B2, “Methods and compositions for modulating lymphatic vessels in the central nervous system” (University of Virginia Patent Foundation, priority 2016, dated 2024):

How the values were obtained:
APPSwe transgenic mice = assay: Visudyne ablation in APPSwe mice, Morris water maze (Example 10); assay type: in vivo; settings: APPSwe mice 6-7 months-old, ablation every 2 weeks for 1 month, vs vehicle
From the text: Adult (6-7 months-old) APPSwe transgenic mice were anesthetized, injected with visudyne (ICM), or vehicle as a control, and submitted to a step of transcranial photoconversion, every 2 weeks for a total of 1 month. […] Results are presented as mean±s.e.m.; n=9 per group; *P<0.05, two-way ANOVA—Repeated Measures, with Bonferroni post hoc test.

[1] = tested on: meningeal lymphatic vessels; assay: Visudyne meningeal lymphatic ablation, Aβ42 drainage and efflux (Example 1); assay type: in vivo, C57BL/6 mice; settings: vs vehicle
Procedure: Visudyne (verteporfin) or vehicle (as control) were injected into the cisterna magna (intra-cisterna magna, ICM) of anesthetized adult C57BL/6 mice (3 months of age), followed by a photoconversion step that was achieved by shining a non-thermal red light (689 nm) in 5 points above the skull. 7 days after the initial procedure, Aβ42-HiLyte647 (1 μg) was stereotaxically injected (coordinates from bregma, AP=+1.5 mm, ML=−1.5 mm, DV=+2.5 mm) into the brain parenchyma. 1 h post injection, mice were transcardially perfused with saline and meninges, deep cervical lymph nodes (dcLNs) and brain were collected for analysis. Meningeal whole-mounts (scale bar, 1 mm) from vehicle (FIG. 23A) or visudyne (FIG. 23B) injected groups were stained for lymphatic vessel, endothelial hyaluronan receptor 1 (LYVE-1, green) and the blood vascular endothelial cell marker CD31 (red). Visudye alone is shown in the inset in the upper right corner of FIGS. 23A and 23B. […] Aβ42 alone is shown in the inset in the upper right corner of each of FIGS. 23E and 23F, and LYVE-1 alone is shown in the inset in the lower right corner of each of FIGS. 23E and 23F. Coronal brain sections (100 μm thick), both rostral and caudal to the injection site, were stained for glial fibrillary acidic protein (GFAP). […] Results are presented as mean±s.e.m. in FIGS. 23C, D, and G; n=6 in vehicle group and n=5 in visudyne group; *P<0.05. **P<0.01, one-tailed Mann-Whitney test; representative of 2 independent experiments).

[2] = tested on: 5xFAD (APPSweFILon,PSEN1*M146L*L286V) transgenic mice; assay: Visudyne ablation in 5xFAD mice, amyloid pathology (Example 9); assay type: in vivo; settings: ablation every 3 weeks for 1.5 months
From the text: Meningeal lymphatic ablation in 1.5 months-old 5xFAD (APPSweFILon,PSEN1*M146L*L286V) transgenic mice was achieved by ICM injection of visudyne, or vehicle as a control, followed by a step of transcranial photoconversion. This procedure was repeated every 3 weeks, for a total of 1.5 months. Meninges of 5xFAD mice from the different groups were stained with DAPI and for LYVE-1 and Aβ. Aβ aggregates were detected in the meninges of 5xFAD mice that undergone lymphatic ablation by visudyne, but not in the meninges of vehicle-injected mice. Aβ aggregates formed specially around the sinuses and in the cerebellar meninges. Hippocampus was stained for DAPI and Amyloid-beta in vehicle or visudyne-injected 5xFAD mice (scale bar, 1 mm, inset, 200 μm). […] Results are presented as mean±s.e.m.; n=5 per group: *P<0.05, one-tailed Mann-Whitney test.

[3] = tested on: meningeal lymphatic vessels; assay: Visudyne ablation in old mice, OVA-A647 CSF tracer (Example 3); assay type: in vivo, C57BL/6 mice; settings: old (20-24 months-old) mice, 7 days post ablation, vs old+vehicle
Procedure: Injections of visudyne or vehicle (ICM), followed by a photoconversion step, were performed in adult (3 months-old) or old (20-24 months-old) C57BL/6 mice. 7 days post ablation, OVA-A647 (2.5 μg) was injected into the CSF (ICM) and mice were transcardially perfused with saline 2 h after.

[4] = tested on: meningeal lymphatic vessels; assay: Photoablation of meningeal lymphatic vessels, multiphoton 690 nm laser through thin skull (FIG. 18); assay type: in vivo, mice; settings: 2 μl i.c.v., two hours after the ablation
Procedure: FIGS. 18A-D are a series of microscope images and graphs showing photoablation of meningeal lymphatic vessels. […] (cisterna magna) with 2 μl of Visudyne, which was activated using 690 nm laser of multiphoton microscope through thin skull. Two hours after the ablation, the meninges were collected and stained for lymphatic endothelial cell (Lyve-1) and blood vessels (laminin).

verteporfin [Visudyne] was tested, and the “MWM probe and reversal” value (APPSwe transgenic mice) was “No differences”, the “latency to find the platform, 4th day of the acquisition phase of the MWM” value (APPSwe transgenic mice) was “Significant differences” and the “drainage of Aβ42 in dcLNs” value ([1]; 1 h after Aβ42-HiLyte647 (1 μg) injection into brain parenchyma, 7 days post ablation) was “significantly less drainage”. For the same substance, the “efflux of Aβ42 from the brain (area fraction occupied by the fluorescent peptide)” value ([1]; 1 h after Aβ42-HiLyte647 injection, 7 days post ablation) was “decreased efflux”, the “area of LYVE-1+ vessels (meningeal whole-mounts)” value ([1]; visudyne ICM + photoconversion 689 nm, adult mice, 7 days after) was “significant decrease” and the “coverage by CD31+ vessels (meningeal whole-mounts)” value ([1]; visudyne ICM + photoconversion, 7 days after) was “no changes”. For the same substance, the “Aβ aggregates in the meninges” value ([2]; not in vehicle-injected mice) was “detected”, the “amyloid plaque coverage in the hippocampus” value ([2]; vs vehicle) was “statistically significant increase” and the “amyloid plaque number in the hippocampus” value ([2]; vs vehicle) was “statistically significant increase”. For the same substance, the “amyloid plaque size in the hippocampus” value ([2]; vs vehicle) was “trend for increased plaque size”, the “influx of a CSF tracer (OVA-A647) into the brain” value [3] was “does not further aggravate” and the “effect on the blood vessels (laminin)” value [4] was “No effect on the blood vessels was observed”. For the same substance, the “lymphatic vessels at the area of ablation (superior sagittal sinus)” value [4] was “Disruption of lymphatic vessels is evident” and the “lymphatic vessels in transverse sinuses” value [4] was “trend to disruption”.
